{"source": "patent EP3820512B1", "about": "“IMMUNOMODULATING COMPOSITIONS COMPRISING OLIGOSACCHARIDE DERIVATIVES” (priority 2018, dated 2020)", "key": {"TLR4": {"target": "TLR4 (Homo sapiens, UniProt O00206)", "sequence (O00206 24-839)": "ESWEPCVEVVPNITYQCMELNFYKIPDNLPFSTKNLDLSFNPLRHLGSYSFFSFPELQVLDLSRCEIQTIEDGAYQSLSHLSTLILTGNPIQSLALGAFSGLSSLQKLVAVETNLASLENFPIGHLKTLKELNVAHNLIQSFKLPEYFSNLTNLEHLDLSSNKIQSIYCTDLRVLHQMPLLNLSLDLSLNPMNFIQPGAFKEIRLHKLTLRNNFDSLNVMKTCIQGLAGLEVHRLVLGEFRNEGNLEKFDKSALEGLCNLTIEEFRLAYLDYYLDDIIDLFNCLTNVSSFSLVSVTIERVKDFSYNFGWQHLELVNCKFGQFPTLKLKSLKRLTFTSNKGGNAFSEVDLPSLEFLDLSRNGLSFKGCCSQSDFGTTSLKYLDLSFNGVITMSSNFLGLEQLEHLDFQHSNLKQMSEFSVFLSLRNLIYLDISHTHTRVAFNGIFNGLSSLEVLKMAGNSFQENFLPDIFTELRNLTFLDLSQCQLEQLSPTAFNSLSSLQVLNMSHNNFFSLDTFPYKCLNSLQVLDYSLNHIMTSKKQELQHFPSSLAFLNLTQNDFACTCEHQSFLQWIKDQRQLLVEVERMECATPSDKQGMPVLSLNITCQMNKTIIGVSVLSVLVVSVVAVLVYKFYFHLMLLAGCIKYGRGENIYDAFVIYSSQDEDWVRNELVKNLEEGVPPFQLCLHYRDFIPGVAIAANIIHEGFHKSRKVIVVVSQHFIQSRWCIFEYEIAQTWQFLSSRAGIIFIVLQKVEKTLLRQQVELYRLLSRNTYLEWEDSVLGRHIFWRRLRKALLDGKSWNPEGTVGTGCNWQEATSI", "sequence (Q9Y6Y9 17-160 partner limits assumed)": "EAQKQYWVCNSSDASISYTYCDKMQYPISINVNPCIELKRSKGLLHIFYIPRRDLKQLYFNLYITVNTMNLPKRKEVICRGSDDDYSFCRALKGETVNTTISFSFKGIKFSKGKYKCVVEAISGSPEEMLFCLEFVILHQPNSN", "test": "TLR4 modulation: IL-1β ELISA in hPBMC, alone or with TLR4 ligand LPS", "format": "cell-based", "set-up": "endogenous in cells", "description": "Compound 8 modulates the TLR4 activities in a concentration dependent manner."}, "[1]": {"test_system": "hyperoxia-induced lung injury in mice", "test": "Hyperoxia induced ALI model", "format": "in vivo, C57BL/6 mice", "experimental": "(§1) Male C57BL/6 mice (Jackson Laboratories,) 12-15 weeks old, 25 - 28 gms, housed up to 5 per cage were used.\nHyperoxia induced ALI model: The ARDS model consists of exposing adult mice in 100% oxygen for 48h followed by injecting with test compounds. Adult mice (N=5) were housed in plexi chamber with a constant and continuous supply of 100% oxygen for 48h. […] The mice were sacrificed after 48 h to harvest lung tissues and collect (BAL) fluid."}, "[2]": {"test_system": "hyperoxia induced BPD in mouse pups", "test": "Hyperoxia-exposed BPD mouse model (newborn pups)", "format": "in vivo", "description": "Neonatal mice and humans undergo similar stages of lung development but differ with respect to the duration of each stage and its temporal relationship to gestational age. The lungs of the mouse born at term are in the saccular stage and are surfactant sufficient; this can be considered somewhat akin to a human preterm neonate in the same stage of lung development that has been exposed to a full complement of antenatal steroids (which is known to enhance surfactant production). In terms of mimicking the human condition, the most successful hyperoxia models are those that limit exposure to hyperoxia to the saccular stage of pulmonary development. The mouse BPD model involves exposing newborn mice (postnatal day 1 or PN1) to 100% oxygen till PN4 followed by recovery in room air (RA) for another 10 days.\nAfter the recovery period, their lungs were harvested and processed for quantitative PCR, western blotting, histopathology and ELISA.\nAfter the recovery period, their lungs were harvested and processed for quantitative PCR, western blotting and histopathology and ELISA.\nBPD is characterized by large simplified alveoli, inflammation, increased cell death, decreased cell proliferation, dysmorphic capillary configuration, and variable interstitial cellularity and/or fibroproliferation. […] This is determined by measuring the alveolar chord length, septal thickness and radial alveolar count (RAC). In BPD, the alveolar area increases which is characterized by increase in the diameter of the alveolar sacs, the septa become thickened (thus interfering in gaseous exchange) and the RAC, a parameter used to assess the complexity of terminal respiratory unit by pulmonologists, decreases as a result of arrested lung development."}, "[3]": {"test_system": "P. aeruginosa (ATCC-10145 GFP) infected skin wounds", "test": "Murine study of skin wound infection", "format": "in vivo, C57BL6 mice", "experimental": "Five groups of C57BL/6 mice (8-10 weeks old, n = 4) were wounded on the dorsal surface. 25µl containing 10^6 CFU/mL P. aeruginosa in a PBS suspension were pipetted onto the wound and allowed to absorb for at least 3 min. […] Subsequently and for the next 13 days, infected wounds were treated each alternate day with colistin, or with test compounds.\nAlong with that less focal inflammation is observed in compound treated groups vs PA group."}, "[4]": {"test_system": "LPS induced lung injury in mice", "test": "LPS-induced ALI model", "format": "in vivo, C57BL/6 mice", "description": "as §1\nThe lungs were sectioned for histopathological assessment after H/E staining while the BAL fluid was used to detect total cell counts (neutrophils and macrophages) and measure protein (that exudes by leakage)."}, "[5]": {"test_system": "VEGF induced tube formation in HUVECs", "test": "Anti-angiogenic activity, Tube Formation kit, VEGF induced", "format": "cell-based, human", "conditions": "VEGF 100ng/mL", "experimental": "Selected TLR2/4 antagonist compounds 2, 6, 7, 8, 14, 17 and 32 were evaluated for anti-angiogenic activity using the Tube Formation kit (Cat#3470-096-K). VEGF (100ng/mL) was used as positive control. These compounds have potential applications in diseases associated with pathological angiogenesis such as solid tumor, […], diabetic retinopathy as well as AMD."}}, "note": "Entries after “also recorded” stand apart in the source; their conditions may differ.", "data": [{"smiles": "CC(=O)N[C@H]1[C@H](Oc2ccc([N+](=O)[O-])cc2)O[C@H](CO)[C@@H](O)[C@@H]1O", "note": "[Compound 8, p-Nitrophenyl 2-acetamido-2-deoxy-β-D-glucopyranoside]", "values": [{"measurement": "IL-1β protein level", "setting": "TLR4; 0.1 µM to <1 µM, alone or in combination with LPS, 24h, ELISA", "value": "downregulate"}, {"measurement": "production of IL-1β", "setting": "TLR4; 1.0 µM, alone and in combination with LPS", "value": "significantly stimulated"}, {"measurement": "protection against hyperoxia induced lung injury", "setting": "[1]; IP 10 mg/kg, two doses, 100% oxygen 48h", "value": "significant protection"}, {"measurement": "hyperoxia-induced lung inflammation", "setting": "[1]; IP injection", "value": "ameliorated"}, {"measurement": "IFN-Y", "setting": "[2]; 10mg/kg, ELISA (FIG. 26)", "value": "decreases"}, {"measurement": "IL-1β", "setting": "[2]; 10mg/kg, ELISA (FIG. 26)", "value": "decreases"}, {"measurement": "IL-6", "setting": "[2]; 10mg/kg, ELISA (FIG. 26)", "value": "decreases"}, {"measurement": "IL-17", "setting": "[2]; 10mg/kg, ELISA (FIG. 26)", "value": "decreases"}, {"measurement": "MCP-1", "setting": "[2]; 10mg/kg, ELISA (FIG. 26)", "value": "decreases"}, {"measurement": "MIP-2", "setting": "[2]; 10mg/kg, ELISA (FIG. 26)", "value": "decreases"}, {"measurement": "TNF-α", "setting": "[2]; 10mg/kg, ELISA (FIG. 26)", "value": "decreases"}, {"measurement": "anti-inflammatory cytokine IL-10", "setting": "[2]; 10mg/kg, ELISA (FIG. 26H)", "value": "increase"}, {"measurement": "hyperoxia induced BPD", "setting": "[2]; IP and IV, saline solution, 5mg/kg or 10 mg/kg on PN2 and PN4 (FIG. 24)", "value": "prevent"}, {"measurement": "chord length", "setting": "[2]; IP injection (FIG. 25)", "value": "improvement"}, {"measurement": "radial alveolar count", "setting": "[2]; IP injection (FIG. 25)", "value": "improvement"}, {"measurement": "septal thickness", "setting": "[2]; IP injection (FIG. 25)", "value": "improvement"}, {"measurement": "Inflammatory cytokines in lung tissue and serum", "setting": "[2]; after injections", "value": "decreased"}, {"measurement": "TLR4 inhibition in vivo", "setting": "[2]; neonatal pups with BPD", "value": "inhibit"}, {"measurement": "lung architecture", "setting": "[2]; saline (IV) and nanosuspension (IN) formulation", "value": "restored"}, {"measurement": "CFU in tissues / bacterial counts", "setting": "[3]; 13 days post infection, vs untreated control", "value": "decreased; also recorded: statistically significant reduction"}, {"measurement": "Re-epithelialization and granulation tissue", "setting": "[3]; H&E histology, day 13 post-injury, vs controls, p=0.050 (Colistin, compound 1), p=0.073 (compound 8)", "value": "borderline non-significant"}, {"measurement": "closure of P. aeruginosa infected skin wounds", "setting": "[3]; topical, each alternate day, day 13, compounds 100µM / 100µg /ml, Colistin 4µg/ml", "value": "effectively closed; also recorded: complete closure"}, {"measurement": "protection against LPS induced lung injury", "setting": "[4]; IP 10mg/kg at 4h and 12h post LPS, sacrifice after 24 h", "value": "significant protection"}, {"measurement": "LPS-induced lung inflammation", "setting": "[4]; IP injection", "value": "ameliorated"}, {"measurement": "VEGF induced tube formation", "setting": "[5]", "value": "significantly decreased"}]}]}
